According to PubChem BioAssay (NCI):
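Briefly, cells in 96-well plates were exposed to five compound concentrations for 48 h, and endpoints were estimated by linear interpolation. The concentration for full growth arrest is given as TGI.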

Key:
Assay in all cases: NCI-60 cell line screen, 48 h
HCC-2998 colon = test system: HCC-2998 colon
EKVX NSCLC = test system: EKVX NSCLC
OVCAR-4 ovarian = test system: OVCAR-4 ovarian
TK-10 renal = test system: TK-10 renal
SR leukemia = test system: SR leukemia
SF-539 CNS = test system: SF-539 CNS
NCI-H23 lung = test system: NCI-H23 lung
NCI-H522 lung = test system: NCI-H522 lung
NCI-H460 lung = test system: NCI-H460 lung
CCRF-CEM leukemia = test system: CCRF-CEM leukemia
RPMI-8226 leukemia = test system: RPMI-8226 leukemia
SN12C renal = test system: SN12C renal
CAKI-1 renal = test system: CAKI-1 renal
NCI-H226 lung = test system: NCI-H226 lung
SNB-75 CNS = test system: SNB-75 CNS
SF-295 CNS = test system: SF-295 CNS
OVCAR-5 ovarian = test system: OVCAR-5 ovarian
NCI/ADR-RES ovarian = test system: NCI/ADR-RES ovarian
PC-3 prostate = test system: PC-3 prostate
A549 NSCLC = test system: A549 NSCLC

Row | SMILES | TGI (HCC-2998 colon) [µM] | TGI (EKVX NSCLC) [µM] | TGI (OVCAR-4 ovarian) [µM] | TGI (TK-10 renal) [µM] | TGI (SR leukemia) [µM] | TGI (SF-539 CNS) [µM] | TGI (NCI-H23 lung) [µM] | TGI (NCI-H522 lung) [µM] | TGI (NCI-H460 lung) [µM] | TGI (CCRF-CEM leukemia) [µM] | TGI (RPMI-8226 leukemia) [µM] | TGI (SN12C renal) [µM] | TGI (CAKI-1 renal) [µM] | TGI (NCI-H226 lung) [µM] | TGI (SNB-75 CNS) [µM] | TGI (SF-295 CNS) [µM] | TGI (OVCAR-5 ovarian) [µM] | TGI (NCI/ADR-RES ovarian) [µM] | TGI (PC-3 prostate) [µM] | TGI (A549 NSCLC) [µM]
1 | CCOC(=O)c1ccc(N=c2oc3ccc(OC)cc3cc2-c2nc3ccccc3[nH]2)cc1 | > 100 | > 100 | > 100 | > 100 | > 100 | 6.03 | > 100 | > 100 | > 100 | > 100 | > 100 | > 100 | > 100 | 8.58 | 65.2 | > 100 | > 100 | > 100 | > 100 | > 100
2 | O=C(Nc1ccc(Cl)cc1)NS(=O)(=O)c1c(-c2ccccc2)oc2ccccc2c1=O | > 100 | > 100 | > 100 | 86.9 | > 100 | > 100 | > 100 | 31.2 | > 100 | > 100 | > 100 | > 100 | > 100 | > 100 | > 100 | > 100 | > 100 | > 100 | > 100 | > 100
3 | CN1CCc2cc(N)cc3c2C1Cc1ccc2c(c1-3)OCO2 (configuration not stated) | 51.4 | > 100 | > 90.4 | > 88.8 | > 39.6 | > 95 | > 100 | 53.1 | > 77.8 | 15.9 | 46.9 | > 88.6 | > 100 | 83.2 | > 91.5 | > 100 | > 77.7 | > 83 | > 100 | > 100
4 | O=C(O)C1=NN(c2ccc(S(=O)(=O)O)cc2)C2(C1)SCC(=O)N2c1nc2ccccc2s1 (configuration not stated) | > 100 | > 100 | > 100 | > 100 | > 100 | > 100 | > 100 | > 100 | > 100 | > 100 | > 100 | > 100 | > 100 | > 100 | > 100 | > 100 | > 100 | > 100 | > 100 | > 100
5 | COc1cccc(Nc2nc(N)nc(N)c2N=O)c1 | 34.4 | > 100 | 78.5 | 60.5 | 45.5 | 35.7 | 31.5 | 29.5 | 29.1 | 93.4 | 60.6 | > 100 | 55.4 | 90.9 | 91.1 | 76.6 | > 100 | 52.5 | > 100 | > 100
6 | CC1=CC(=O)/C(=C/n2c(=S)[nH]c3ccc([N+](=O)[O-])cc32)C(=O)O1 | > 100 | > 100 | > 100 | > 100 | > 100 | > 100 | > 100 | > 100 | > 100 | > 100 | > 100 | > 100 | – | > 100 | > 100 | > 100 | > 100 | > 100 | > 100 | > 100
7 | O=c1c2cc(S(=O)(=O)Nc3c(Cl)cccc3Cl)ccc2ncn1NS(=O)(=O)c1ccc2ccccc2c1 | > 62.5 | > 62.5 | > 62.5 | > 62.5 | > 62.5 | > 62.5 | > 62.5 | > 62.5 | > 62.5 | > 62.5 | > 62.5 | > 62.5 | > 62.5 | 35.1 | > 62.5 | > 62.5 | > 62.5 | > 62.5 | > 62.5 | > 62.5
8 | CCO/C=C(\C(=O)OC)S(=O)(=O)c1ccc(C)cc1 | > 100 | > 100 | > 100 | > 100 | > 100 | > 100 | > 100 | > 100 | > 100 | > 100 | > 100 | > 100 | – | > 100 | > 100 | > 100 | > 100 | > 100 | > 100 | > 100
9 | COC(=O)/C=C1/OC(c2ccc(C)cc2)=C(Cl)C1=O | 34.4 | 42.3 | 27.5 | 34.9 | 9.06 | 35.5 | 36.9 | 23.2 | 51 | 11.7 | 14.4 | 38 | 29.7 | 47.1 | 35.5 | 41.7 | 35 | 56.1 | 27.7 | 40.4
10 | O=c1c(=[n+]2ccc(=C([O-])c3ccccc3)cc2)/c(=N/S(=O)(=O)c2ccccc2)c(=O)c2ccccc12 | 23.7 | 27 | 25.9 | 32.2 | 13.4 | 25.9 | 12 | 18.3 | 36.2 | 6.11 | 18.9 | 19 | 5.19 | 30.8 | 27.7 | 24.3 | 33.7 | 24.3 | 23.6 | 29.8
11 | O=C1COCCN1C(=O)c1ccccc1Cl | > 100 | > 100 | > 100 | > 100 | > 100 | > 100 | > 100 | > 100 | > 100 | > 100 | > 100 | > 100 | > 100 | > 100 | > 100 | > 100 | > 100 | > 100 | > 100 | > 100
12 | OC(CC(O)(C(F)(F)F)C(F)(F)F)C(O)c1ccco1 (configuration not stated) | > 10 | > 10 | > 10 | > 10 | > 10 | > 10 | > 10 | > 10 | > 10 | > 10 | > 10 | > 10 | > 10 | > 10 | > 10 | > 10 | – | > 10 | > 10 | > 10
